Test results from US20240262830A1, “IRE1A MODULATORS AND USES THEREOF” (Nimbus Iaso, Inc., priority 2020, published 2024).

Tests used:
[1] = test system: hIRE1a; test: XBP1-Luc cell assay; type: cell-based; details: Homo sapiens; HEK293-pLVX-XBP1.fluc-IRES-Puro cells, 600 nM Thapsigargin 1 hour, then inhibitor 6 hours; read-out: fLuc_XBP1_hIRE1a_HEK293_IC50 (IC50)
Protocol: HEK293-pLVX-XBP1.fluc-IRES-Puro cells (ChemPartner) were collected into DMEM (Invitrogen, 11995-065) with 10% FBS (BI, 04-002-1A). Cells were seeded at 1.5E4 cells/well in BioCoat Poly-D-Lysine Black/Clear flat bottom 96 well plate (Corning, 356640) and incubated overnight at 37° C. and 5% CO2. Cells were treated with 600 nM Thapsigargin (Sigma, T9033) for 1 hour at 37° C. and 5% CO2 prior to inhibitor addition. A titration of inhibitor, starting at 30 μM was added to wells for an additional 6 hours at 37° C. and 5% CO2. 100 μl of Steady-Glo Luciferase assay reagent (Promega, E2550) was added to plate and the plate was shaken for 2 minutes. Signal was read using EnSpire (Perkin Elmer).

[2] = molecular target: T1, truncated human IRE1a WT protein, containing the catalytic part (aa 547-977) (Homo sapiens, UniProt O75460); test: IRE1a biochemical enzyme splice assay; details: 20 nM protein, 500 nM fluorescently quenched IRE1a substrate, 40 min at room temperature; read-out: EnzymeSplice_hIRE1a_IC50 (IC50)
T1 construct: containing the catalytic part (aa 547-977); made in house
T1 sequence (O75460 547-977): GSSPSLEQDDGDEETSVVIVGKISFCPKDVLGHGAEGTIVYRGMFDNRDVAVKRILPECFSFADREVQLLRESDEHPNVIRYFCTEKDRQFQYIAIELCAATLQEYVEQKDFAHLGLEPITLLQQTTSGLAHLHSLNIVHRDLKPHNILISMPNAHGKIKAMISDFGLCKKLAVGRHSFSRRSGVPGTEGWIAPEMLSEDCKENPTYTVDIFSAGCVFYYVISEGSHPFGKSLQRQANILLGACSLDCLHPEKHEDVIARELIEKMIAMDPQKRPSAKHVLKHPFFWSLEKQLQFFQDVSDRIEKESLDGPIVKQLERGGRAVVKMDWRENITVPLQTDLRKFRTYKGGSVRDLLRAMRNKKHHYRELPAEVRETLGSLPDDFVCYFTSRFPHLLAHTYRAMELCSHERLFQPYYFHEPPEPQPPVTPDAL
Protocol: A truncated human IRE1a WT protein, containing the catalytic part (aa 547-977) was expressed in baculovirus. The purified protein (20 nM) was incubated with a fluorescently quenched IRE1a substrate (500 nM; 5′/6-FAM-CAGUCCGCAGCACUG-BHQ-1/3′) and a titration of inhibitor, starting at 10 μM (final DMSO concentration=1%) for 40 min at room temperature in assay buffer. Reactions were carried out in a final volume of […] in a 384 well assay plate. The reaction was stopped, and the plate was spun for 1 minute at 1000 rpm. The fluorescence intensity of the IRE1a-substrate was measured using an fluorescent plate reader (Ex 485 nm/Em 535 nm, Perkin Elmer Envision).

Row | IC50 [1] | IC50 [2] | Structure (SMILES)
1 | < 1000 nM | 100 to 1000 nM | CCc1cc(-c2ccc3c(NC(=O)NC4CC4)ncnn23)cc2cnc(NC3CCCNC3)nc12 (stereo in doubt) [Compound I-24, 3-cyclopropyl-1-(7-{8-ethyl-2-[(3R)-piperidin-3-ylamino]quinazolin-6-yl}pyrrolo[2,1-f][1,2,4]triazin-4-yl)urea]
2 | < 1000 nM | < 100 nM | CCc1cc(-c2ccc3c(NS(=O)(=O)c4ccccc4F)ncnn23)cc2cnc(N[C@H]3CCCNC3)nc12 [Compound I-1, (S)—N-(7-(8-ethyl-2-(piperidin-3-ylamino)quinazolin-6-yl)pyrrolo[2,1-f][1,2,4]triazin-4-yl)-2-fluorobenzenesulfonamide]
3 | < 1000 nM | < 100 nM | CCc1cc(-c2ccc3c(NS(=O)(=O)c4ccccc4C)ncnn23)cc2cnc(N[C@H]3CCCNC3)nc12 [Compound I-2, (S)—N-(7-(8-ethyl-2-(piperidin-3-ylamino)quinazolin-6-yl)pyrrolo[2,1-f][1,2,4]triazin-4-yl)-2-methylbenzenesulfonamide]
4 | < 1000 nM | < 100 nM | CCc1cc(-c2ccc3c(NS(=O)(=O)C4CCCCC4)ncnn23)cc2cnc(N[C@H]3CCCNC3)nc12 [Compound I-3, (S)—N-(7-(8-ethyl-2-(piperidin-3-ylamino)quinazolin-6-yl)pyrrolo[2,1-f][1,2,4]triazin-4-yl)cyclohexanesulfonamide]
5 | > 10000 nM | 100 to 1000 nM | CCc1cc(-c2ccc3c(NS(=O)(=O)c4ccccc4Cl)ncnn23)cc2cnc(N[C@H]3CCCC[C@@H]3O)nc12 [Compound I-4, 2-chloro-N-(7-(8-ethyl-2-(((1S,2S)-2-hydroxycyclohexyl)amino)quinazolin-6-yl)pyrrolo[2,1-f][1,2,4]triazin-4-yl)benzenesulfonamide]
6 | 1000 to 10000 nM | < 100 nM | CCc1cc(-c2ccc3c(NS(=O)(=O)c4ccc(OC(F)F)cc4)ncnn23)cc2cnc(N[C@H]3CCCNC3)nc12 [Compound I-5, (S)-4-(difluoromethoxy)-N-(7-(8-ethyl-2-(piperidin-3-ylamino)quinazolin-6-yl)pyrrolo[2,1-f][1,2,4]triazin-4-yl)benzenesulfonamide]
7 | < 1000 nM | < 100 nM | CCc1cc(-c2cnc3c(NS(=O)(=O)c4ccccc4Cl)nccn23)cc2cnc(N[C@H]3CCCNC3)nc12 [Compound I-6, (S)-2-chloro-N-(3-(8-ethyl-2-(piperidin-3-ylamino)quinazolin-6-yl)imidazo[1,2-a]pyrazin-8-yl)benzenesulfonamide]
8 | < 1000 nM | < 100 nM | CCc1cc(-c2ccc3c(NS(=O)(=O)Cc4ccccc4)ncnn23)cc2cnc(N[C@H]3CCCNC3)nc12 [Compound I-7, (S)—N-(7-(8-ethyl-2-(piperidin-3-ylamino)quinazolin-6-yl)pyrrolo[2,1-f][1,2,4]triazin-4-yl)-1-phenylmethanesulfonamide]
9 | – | > 1000 nM | CCc1cc(-c2ccc3c(NS(=O)(=O)c4ccccc4Cl)ncnn23)cc2cnc(N[C@H]3CCCC[C@H]3O)nc12 [Compound I-10, 2-chloro-N-(7-(8-ethyl-2-(((1S,2R)-2-hydroxycyclohexyl)amino)quinazolin-6-yl)pyrrolo[2,1-f][1,2,4]triazin-4-yl)benzenesulfonamide]
10 | – | > 1000 nM | CCc1cc(-c2ccc3c(NS(=O)(=O)c4ccccc4Cl)ncnn23)cc2cnc(N[C@H]3CCCC[C@@H]3N)nc12 [Compound I-13, N-(7-(2-(((1S,2S)-2-aminocyclohexyl)amino)-8-ethylquinazolin-6-yl)pyrrolo[2,1-f][1,2,4]triazin-4-yl)-2-chlorobenzenesulfonamide]
11 | – | > 1000 nM | CCc1cc(-c2ccc3c(NS(=O)(=O)c4ccc(C(F)(F)F)cc4Cl)ncnn23)cc2cnc(N[C@H]3CCCNC3)nc12 [Compound I-34, (S)-2-chloro-N-(7-(8-ethyl-2-(piperidin-3-ylamino)quinazolin-6-yl)pyrrolo[2,1-f][1,2,4]triazin-4-yl)-4-(trifluoromethyl)benzenesulfonamide]
